# US20050232983A1, “Transdermal patch” (INDEVUS PHARMACEUTICALS, INC., priority 2004, published 2005)
# Assay: serum dehydroepiandrosterone sulfate after topical application of the composition
# Type: in vivo
# Conditions: blood sample of recipient after application to skin
# Excerpt: Delivery of dehydroepiandrosterone to the recipient's blood stream can be confirmed by analysis of a blood sample taken from the recipient.
smiles,measurement,value
C[C@]12CC[C@H](O)CC1=CC[C@@H]1[C@@H]2CC[C@]2(C)C(=O)CC[C@@H]12 [dehydroepiandrosterone],plateau of serum dehydroepiandrosterone sulfate relative to baseline,at least twice baseline levels
same,time to increased serum levels of dehydroepiandrosterone sulfate,within twenty-four hours
